Test results taken from article PMC9649909, “Wnt-pathway inhibitors with selective activity against triple-negative breast cancer: From thienopyrimidine to quinazoline inhibitors” (Frontiers in Pharmacology, 2022).
Read-outs that look alike come from different tables or passages of the source.

What was measured:
[1] = test system: non-cancerous breast epithelial cell line MCF10a; assay: MTT survival assay MCF10a; assay type: cell-based
Experimental: (§1) Indicated TNBC cell lines were detached and resuspended at 120,000 cells/ml and added into each well of a transparent 384-well plate in the final volume of 20 µl/well. The cells were maintained in DMEM containing 10% FBS at 37°C, 5% CO2 overnight. Next day, the medium in each well was replaced by 40 μl of the fresh one containing the indicated concentrations of compounds. In case of drug combination experiments, each compound dilution was delivered in corresponding well in 20 μl of medium. […] After incubation for 3–4 days, depending on the cell line, the medium in each well was replaced by 25 μl of 0.5 mg/ml Thiazolyl blue solution in 1xPBS following by incubation for 3 h at 37°C. Then the solution was removed and 25 μl DMSO was added into each well. Absorbance at 510 nm was measured in a Tecan Infinite M200 PRO plate reader.

[2] = test system: β-catenin-dependent Wnt-pathway; assay: TopFlash luciferase reporter assay, CHIR99021-stimulated, HCC1395; assay type: cell-based; settings: for Emax: read-out: HCC1395 TopFlash Efficacy
From the text: Both stimulations abolish formation of the destruction complex, a multiprotein complex consisting of Axin, adenomatous polyposis coli (APC), glycogen synthase kinase three beta (GSK3β), and casein kinase one alpha (CK1α). Upon inactivation of the complex, β-catenin accumulates in the cytoplasm and translocates into the nucleus where it interacts with transcription factors. These downstream events are quantified by a Luciferase transcription-based readout assay (TopFlash assay).

[3] = test system: MDA-MB-231 TNBC cell line; assay: MTT survival assay MDA-MB-231; assay type: cell-based
Experimental: as §1

HCC1395 TNBC cell line = assay: MTT survival assay HCC1395; assay type: cell-based; settings: Table S2; for IC50: read-out: MTT HCC-1395 IC50
Experimental: as §1

[4] = test system: MDA-MB-468 TNBC cell line; assay: MTT survival assay MDA-MB-468; assay type: cell-based; settings: Table S2
Experimental: as §1

HCC1806 TNBC cell line = assay: MTT survival assay HCC1806; assay type: cell-based; settings: Table S2; for IC50: read-out: MTT HCC1806 IC50
Experimental: as §1

BT-20 TNBC cell line = assay: MTT survival assay BT-20; assay type: cell-based; settings: Table S2; for IC50: read-out: MTT BT-20 IC50
Experimental: as §1

in vitro = settings: human
Experimental: (§2) The simplicity of the scaffold combined with synthetic accessibility allows building a library of compounds and performing structure activity relationship (SAR) studies of the three main parts of the molecule: the top part, the linker and the core (Figure 2).
(§3) The synthesized compounds were used to explore SAR of three defined areas of investigation (Figure 2). All compounds were tested in the HCC1395 TNBC cell line using the GSK3β inhibitor to induce β-catenin signaling since 4a acted downstream of GSK3β (Figure 2). Both inhibition of β-catenin signaling measured by the TopFlash reporter and cytotoxicity measured by the Renilla reporter were assessed.
(§4) The Wnt3a or CHIR99021-stimulated luciferase activity in HCC1395 TNBC cell line stably transfected with the TopFlash reporter was analyzed essentially as described for the BT-20 TNBC cell line ([Shaw et al., 2019b]; [Koval et al., 2021]). Reporter cells were seeded at 10,000 cells/well in a white opaque 384-well plate in the final volume of 20 μl of DMEM medium supplemented with 10% FCS. The cells were maintained incubated at 37°C, 5% CO2 overnight for attachment. Subsequently, they were transfected by a plasmid encoding constitutively expressed Renilla luciferase under the CMV promoter overall as described in the manufacturer’s protocol using 12 μg/ml of DNA and 40 μl/ml XtremeGENE nine reagent. The next day, the medium in each well was replaced with a 10 μl of fresh medium containing compound of interest, and, after 1 h of preincubation with the compounds, additional 10 μl of medium supplemented with Wnt3a [purified as described ([Willert et al., 2003]; [Koval and Katanaev, 2011])] or CHIR99021 were added creating respective final concentrations of 2.5 μg/ml or 5 μM of each. In case of other signal transduction reporters, no additional stimulation was performed. Compound dilutions were prepared by serial dilution in DMSO and diluted with the amount of medium necessary to obtain their final concentrations indicated on the figures and tables and maintain concentration of DMSO of 0.5% in all assay points. After overnight incubation, the supernatant in each well was removed, and the luciferase activity was measured as described ([Dyer et al., 2000]; [Huber et al., 2021]; [Pellissier et al., 2021]). The culture medium was completely removed from all wells of the plate. Finally, the luciferase activity of the firefly and Renilla luciferases was detected sequentially in individual wells of a 384-well plate through injection of corresponding measurement solutions and immediate reading (400 ms integration time) in Infinite M Plex multifunctional plate reader with injection module.

HCC1395 cells = assay: in vitro
Experimental: as §2, §3, §4

[5] = Homo sapiens, MCF-10A, Table S2, read-out: MTT MCF10 IC50
[6] = Homo sapiens, HCC1395, HCC1395, stimulation with CHIR99021 (GSK3β inhibitor)
[7] = Homo sapiens, HCC1395, HCC1395, stimulation with CHIR99021 (GSK3β inhibitor), read-out: HCC1395 TopFlash IC50
[8] = Homo sapiens, MDA-MB-231, Figure 3B heatmap, read-out: IC50, μM (MDA-MB-231)
[9] = Homo sapiens, MDA-MB-231, Table S2, read-out: MTT MDA-MB-231 IC50
[10] = HCC1395, stimulation with CHIR99021 (GSK3β inhibitor)

IC50 [2, 7] [µM]	Compound	IC50 [1, 5] [µM]	MTT MCF10 Comments ([1]; Table S2)	Emax [2, 6] [%]	IC50 [3, 8] [µM]	IC50 [3, 9] [µM]	MTT MDA-MB-231 plateau ([3]; Table S2)	IC50 (HCC1395 TNBC cell line; Homo sapiens, HCC1395) [µM]	IC50 ([4]; Homo sapiens, MDA-MB-468) [µM]	IC50 (HCC1806 TNBC cell line; Homo sapiens, HCC1806) [µM]	MTT HCC1806 Comments (HCC1806 TNBC cell line)	IC50 (BT-20 TNBC cell line; Homo sapiens, BT-20) [µM]	IC50 (in vitro; HCC1395 Cytotoxicity IC50) [µM]	MTT MDA-MB-231 Comments ([3]; Table S2)	HCC1395 TopFlash Efficacy [2, 10] [%]	also measured
4.96 ± 1.65	COc1cccc(CNc2ncnc3sccc23)c1 [Compound 4c, N-(3-methoxybenzyl)thieno[2,3-d]pyrimidin-4-amine]	> 50	Inactive	58.6 ± 22.8	> 10	9.37	100	1.08	1.61	> 50	Inactive	2.89	> 50	–	–	GSK HCC1395 Renilla Comments (HCC1395 cells): Non-toxic; IC50 (HCC1395 cells; human): > 100 µM
1.33 ± 0.07	COc1cc(CNc2ncnc3sccc23)ccc1Cl [Compound 4q, N-(4-chloro-3-methoxybenzyl)thieno[2,3-d]pyrimidin-4-amine]	> 10	Inactive	68.5 ± 2.9	–	> 10	–	0.63	0.57	> 10	Inactive	0.96	> 50	Inactive	–	–
3.76 ± 1.9	Cc1cccc(CNc2ncnc3sccc23)c1 [Compound 4n, N-(3-methylbenzyl)thieno[2,3-d]pyrimidin-4-amine]	> 10	Inactive	52.9 ± 6.8	–	> 10	–	1.05	0.48	> 10	Inactive	4.72	> 50	Inactive	–	–
2.79 ± 0.67	COc1ccccc1CNc1ncnc2sccc12 [Compound 4b, N-(2-methoxybenzyl)thieno[2,3-d]pyrimidin-4-amine]	33.2	–	40.7	> 10	> 50	–	8.17	11.8	> 50	Inactive	> 50	> 50	–	40.7 ± 3.1	IC50 ([1]; Homo sapiens, MCF-10A, Figure 3B heatmap, read-out: IC50, μM (MCF10)): > 10 µM; fold improvement in the activity compared to 4a ([2]; TopFlash IC50 vs 4a): 3 fold
–	2-chloro-N-(2-methoxybenzyl)quinazolin-4-amine [Compound 8a]	–	–	–	–	–	53.88	–	–	–	–	–	–	–	–	selectivity over the control cells (difference in IC50, MCF10a vs HCC1395) ([1]; MTT IC50 ratio MCF10a / HCC1395): less than 3 fold; MTT MCF10 plateau ([1]; Table S2): 100; IC50 ([1]; Table S2, read-out: MTT MCF10 IC50): 10.5 µM; TopFlash activity in words ([2]; HCC1395, CHIR99021): no longer active; GSK HCC1395 plateau ([2]; Table S2): 100; IC50 ([2]; Table S2, TopFlash, GSK3β inhibitor stimulation, read-out: GSK HCC1395 IC50): 42.8 µM; IC50 ([3]; Table S2, read-out: MTT MDA-MB-231 IC50): 2.65 µM; MTT HCC1395 plateau (HCC1395 TNBC cell line): 100; IC50 (HCC1395 TNBC cell line): 7.83 µM; IC50 [4]: 3.19 µM; MTT MDA-MB-468 plateau [4]: 69.23; MTT HCC1806 plateau (HCC1806 TNBC cell line): 100; IC50 (HCC1806 TNBC cell line): 22.7 µM; MTT BT-20 plateau (BT-20 TNBC cell line): 100; IC50 (BT-20 TNBC cell line): 2.96 µM; IC50 (HCC1395 cells; read-out: HCC1395 Cytotoxicity IC50, Renilla luciferase, HCC1395): > 100 µM

Compound	IC50 [2, 7] [µM]	IC50 [1, 5] [µM]	MTT MCF10 Comments ([1]; Table S2)	Emax [2, 6] [%]	IC50 [3, 8] [µM]	IC50 [3, 9] [µM]	MTT MDA-MB-231 plateau ([3]; Table S2)	IC50 (HCC1395 TNBC cell line; Homo sapiens, HCC1395) [µM]	IC50 ([4]; Homo sapiens, MDA-MB-468) [µM]	IC50 (HCC1806 TNBC cell line; Homo sapiens, HCC1806) [µM]	MTT HCC1806 Comments (HCC1806 TNBC cell line)	IC50 (BT-20 TNBC cell line; Homo sapiens, BT-20) [µM]	IC50 (in vitro; HCC1395 Cytotoxicity IC50) [µM]	MTT MDA-MB-231 Comments ([3]; Table S2)	HCC1395 TopFlash Efficacy [2, 10] [%]	also measured
COc1ccc(CNc2ncnc3ccccc23)cc1 [Compound 9c, N-(4-methoxybenzyl)quinazolin-4-amine]	4.76 ± 0.23	7.94	–	81.5	–	> 10	–	1.17	0.44	> 10	Inactive	3.81	–	Inactive	81.5 ± 10.61	IC50 (in vitro): > 50 µM
